Assay results as given in patent US8449788B2, “Leather finishing compositions comprising dioxolane derivatives” (Rhodia Poliamida e Especialidades Ltda, priority 2009, dated 2013).
Where two headings read alike, the source gives them in different places.

Columns and labels:
mouse = details: cited from earlier work
[1] = Solubilization of a dye-metal complex; format: physicochemical
Experimental: Solketal was tested to solubilize a dye-metal complex.

[2] = cited from earlier work
[3] = cited from earlier work; remark: listed apart in the source
[4] = cited from earlier work; remark: listed apart in the source

In the case of CC1(C)OCC(CO)O1 (stereo not drawn) [Solketal, 2,2-dimethyl-1,3-dioxolane-4-methanol], the “LD50 (oral/mouse mg/kg)” value (mouse) is given as 7000 mg/kg, the “Performance as solvent for dye-metal complex” value [1] is given as “good compared to diacetone alcohol and methoxy propanol, and less effective compared to ethyldiglycol, ethylglycol, butyldiglycol and butylglycol” and the “Performance as solvent for dye-metal complex” value ([1]; listed as solketal) is given as “average”. The “Solubility in water at 20° C.” value [2] was “miscible”, the “Reversion in slightly acid pH (biodegradability)” value [3] was “may revert into acetone and glycerin” and the Acute oral toxicity [4] was 7.00.
